Test results published in ChEMBL document CHEMBL1201862, “PubChem BioAssay data set” (2004).
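96-well plates; 48 h exposure; 5 concentrations. Endpoints by linear interpolation between flanking doses. Not reached: highest tested concentration assigned. Here, GI50 denotes the concentration required for 50% inhibition of growth.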 Active and inactive are the calls of the source. No stated cut-off is given here; in the data, active = GI50 up to about 1.1 µM and inactive = higher.

Experiments:
Assay in all cases: inhibition of tumour cell growth, NCI panel, 48 h
SNB-19 = system: SNB-19
TK-10 = system: TK-10
IGROV-1 = system: IGROV-1
SNB-75 = system: SNB-75
SK-MEL-5 = system: SK-MEL-5
SF-295 = system: SF-295
SF-268 = system: SF-268
SR = system: SR
LOX IMVI = system: LOX IMVI
SK-MEL-28 = system: SK-MEL-28
MDA-MB-435 = system: MDA-MB-435
NCI/ADR-RES = system: NCI/ADR-RES
A498 = system: A498
OVCAR-3 = system: OVCAR-3
CCRF-CEM = system: CCRF-CEM
A549 = system: A549
MCF7 = system: MCF7
MOLT-4 = system: MOLT-4
BT-549 = system: BT-549
SW-620 = system: SW-620
RXF 393 = system: RXF 393
Malme-3M = system: Malme-3M
NCI-H522 = system: NCI-H522
OVCAR-5 = system: OVCAR-5
K562 = system: K562
SK-OV-3 = system: SK-OV-3
HL-60 = system: HL-60
MDA-N = system: MDA-N
COLO 205 = system: COLO 205
HOP-62 = system: HOP-62
EKVX = system: EKVX
PC-3 = system: PC-3
HOP-92 = system: HOP-92
OVCAR-8 = system: OVCAR-8
RPMI-8226 = system: RPMI-8226
U-251 = system: U-251
HCT-15 = system: HCT-15
OVCAR-4 = system: OVCAR-4
HCC 2998 = system: HCC 2998
CAKI-1 = system: CAKI-1
SK-MEL-2 = system: SK-MEL-2
SF-539 = system: SF-539
Hs-578T = system: Hs-578T
DU-145 = system: DU-145
ACHN = system: ACHN
UO-31 = system: UO-31
786-0 = system: 786-0
MDA-MB-231 = system: MDA-MB-231
NCI-H460 = system: NCI-H460
UACC-257 = system: UACC-257
HCT-116 = system: HCT-116
KM12 = system: KM12
T47D = system: T47D
SN12C = system: SN12C
HT-29 = system: HT-29
UACC-62 = system: UACC-62
NCI-H23 = system: NCI-H23
M14 = system: M14

Measured: GI50

CC(C)(O)CO/N=C1\C(=C2\C(=O)Nc3ccccc32)Nc2ccccc21
active: TK-10 0.601 µM | IGROV-1 0.0895 µM | SNB-75 0.811 µM | SK-MEL-5 0.423 µM | SR 0.594 µM | LOX IMVI 0.583 µM | MDA-MB-435 0.794 µM | A498 0.187 µM | CCRF-CEM 0.435 µM | A549 0.724 µM | MOLT-4 0.944 µM | SW-620 0.811 µM | RXF 393 0.279 µM | SK-OV-3 0.158 µM | HL-60 0.74 µM | COLO 205 0.615 µM | PC-3 0.883 µM | HCC 2998 0.991 µM | CAKI-1 0.112 µM | SK-MEL-2 0.232 µM | Hs-578T 0.867 µM | DU-145 0.476 µM | ACHN 0.426 µM | UO-31 0.348 µM | NCI-H460 0.395 µM | KM12 < 0.01 µM | T47D 0.631 µM | UACC-62 0.728 µM | M14 0.474 µM
0.324 µM: HCT-15
inactive: SNB-19 4.24 µM | SF-295 2.52 µM | SF-268 2.33 µM | SK-MEL-28 2.38 µM | NCI/ADR-RES 1.33 µM | OVCAR-3 1.32 µM | MCF7 1.39 µM | BT-549 1.82 µM | Malme-3M 4.3 µM | NCI-H522 1.87 µM | OVCAR-5 2.61 µM | K562 5.86 µM | MDA-N 12.2 µM | HOP-62 2.1 µM | EKVX 1.65 µM | HOP-92 3.48 µM | OVCAR-8 1.15 µM | RPMI-8226 1.97 µM | U-251 2.38 µM | OVCAR-4 2.94 µM | SF-539 2.71 µM | 786-0 10.7 µM | MDA-MB-231 2.01 µM | UACC-257 4.49 µM | HCT-116 6.28 µM | SN12C 12 µM | HT-29 1.75 µM | NCI-H23 1.18 µM

O=P(O)(O)OP(=O)(O)O
inactive: SNB-19 > 100 µM | TK-10 > 100 µM | IGROV-1 > 100 µM | SNB-75 > 100 µM | SK-MEL-5 > 100 µM | SF-268 > 100 µM | SR > 100 µM | LOX IMVI > 100 µM | SK-MEL-28 > 100 µM | MDA-MB-435 > 100 µM | NCI/ADR-RES > 100 µM | A498 > 100 µM | OVCAR-3 > 100 µM | CCRF-CEM > 100 µM | A549 > 100 µM | MCF7 > 100 µM | MOLT-4 > 100 µM | BT-549 > 100 µM | SW-620 > 100 µM | RXF 393 > 100 µM | Malme-3M > 100 µM | NCI-H522 > 100 µM | OVCAR-5 > 100 µM | K562 > 100 µM | SK-OV-3 > 100 µM | HL-60 > 100 µM | MDA-N > 100 µM | COLO 205 > 100 µM | HOP-62 > 100 µM | EKVX > 100 µM | PC-3 > 100 µM | HOP-92 > 100 µM | OVCAR-8 > 100 µM | RPMI-8226 > 100 µM | U-251 > 100 µM | OVCAR-4 > 100 µM | HCC 2998 > 100 µM | CAKI-1 > 100 µM | SK-MEL-2 > 100 µM | SF-539 > 100 µM | Hs-578T > 100 µM | DU-145 > 100 µM | ACHN > 100 µM | UO-31 > 100 µM | 786-0 > 100 µM | MDA-MB-231 > 100 µM | NCI-H460 > 100 µM | UACC-257 > 100 µM | HCT-116 > 100 µM | KM12 > 100 µM | T47D > 100 µM | SN12C > 100 µM | HT-29 > 100 µM | UACC-62 > 100 µM | NCI-H23 > 100 µM | M14 > 100 µM
> 100 µM: HCT-15
